Assay results as given in patent US20010033854A1, “Anti-microbial compositions” (priority 2000, published 2001).
Like-named read-outs stand apart in the source and are kept apart here.

How the values were obtained:
[1] = tested on: Staphlococcus epidermidis; test: Growth inhibition of a relevant micro-organism by chelator; assay type: cell-based; settings: chelator at 3×10^−6 mol.dm^−3 or less
Text: Inhibition is considered significant when growth of the relevant micro-organism on a supporting medium can be reduced by at least 30% preferably by at least 45%.

relevant micro-organism = settings: cited from earlier work

| Structure (SMILES) | Significant inhibition of growth (reduced by at least 30%) [1] | also measured |
| --- | --- | --- |
| O=C(O)CN(CC(=O)O)[C@@H]1CCCC[C@H]1N(CC(=O)O)CC(=O)O (relative stereo) [CDTA, trans-1,2-diaminocyclohexane-N,N,N′,N′-tetraacetic acid] | exclude | – |
| O=C(O)CN(CCN(CCN(CC(=O)O)CC(=O)O)CC(=O)O)CCN(CC(=O)O)CC(=O)O [TTHA, triethylenetetraaminehexaacetic acid] | capable of achieving significant inhibition | – |
| CCO [ethanol] | – | MIC (relevant micro-organism; ethanol and similar alkanols): greater than 1 mg.ml^−1 |
| O=C(O)CN(CCN(CC(=O)O)CC(=O)O)CCN(CC(=O)O)CC(=O)O [DTPA, diethylenetriaminepentaacetic acid] | capable of achieving significant inhibition | – |
| CC(C)=CCCC(C)=CCCC(C)=CCO [farnesol, 3,7,11-trimethyldodeca-2,6,10-trienol] | – | MIC (relevant micro-organism; literature values): ca. 25 μg.ml^−1 |
| Oc1cc(Cl)ccc1Oc1ccc(Cl)cc1Cl [triclosan, 2′,4,4′-trichloro-2′-hydroxydiphenyl ether] | – | MIC (relevant micro-organism; literature values): 0.01 to 10 µg/mL |
| O=C(O)CN(CCN(CC(=O)O)CC(=O)O)CC(=O)O [EDTA, ethylenediaminetetraacetic acid] | exclude | – |
